Experimental data published in patent US20110008394A1, “ACTIVE SUBSTANCES THAT INCREASE THE ACTIVATION THRESHOLD OF IMMUNE CELLS” (BASF Beauty Care Solutions France S.A.S., priority 2008, published 2011).

Key:
[1] = tested on: CD86 on LCs/DDCs stimulated with LPS and TNFα; assay: Response to a danger signal: LCs/DDCs pretreated with active principles, then stimulated with LPS + TNFα without them, CD86 by flow cytometry; format: cell-based, human; conditions: for RESPONSE CAPACITY: capacity for response to a danger signal, proportional to residual CD86 after pretreatment + stimulation (stimulation alone 143%); for RESIDUAL EXPRESSION OF CD86 AFTER PRETREATMENT + STIMULATION: pretreated, then recultured 48 hours without active principle with LPS 50 μg/mL + TNFα 10 μg/mL, untreated unstimulated control = 100%
Text: As in Example 8, we checked that the LCs/DDCs are capable of responding to a danger signal, for example a bacterial infection, when they have been treated beforehand with the active principles and when they are no longer being treated. To do this, we checked that the LCs/DDCs treated with the said active principles, and then stimulated with LPS and TNFα (in the absence of the active principles), are capable of overexpressing the co-stimulation molecule CD86 after this stimulation.
(§1) The flow cytometry study proceeds in the following manner:
(§2) 1/ The immature LCs/DDCs are generated as described in Example 1 and step 3.
(§3) 2/ The cells are inoculated in P24-well plates, at a rate of 400 000 cells per cm^2, and in the culture medium described in Example 3. The treatment of the cells with the active principles is described in Example 3.
3/ The cells treated with the active principles are then recultured, without the active principles and in the culture medium described in Example 3, for a further 48 hours. A mixture of LPS (at 50 μg/mL advantageously) and of TNFα (at 10 μg/mL advantageously) is added to the said culture medium. The cells are then analysed by flow cytometry, as described in Example 6, to quantify the residual expression of the molecule CD86 after “pretreatment+stimulation”.
The results are expressed in the following manner: the control not treated with the active agent and not stimulated with LPS and TNFα is referenced at 100% expression of the molecule CD86, and the tests are expressed as the residual expression of the molecule CD86 after “stimulation” and after “pretreatment+stimulation”. We also calculated the level of capacity for response to a danger signal, which is proportional to the residual expression of CD86 after pretreatment+stimulation.

[2] = tested on: immature LCs/DDCs; assay: Cell viability (cytotoxicity) test, 7-AAD dye, flow cytometry; format: cell-based; conditions: 24 hour treatment
Procedure: The active principles have a cytotoxic effect when the cell viability is less than 75% after treatment with the said active agents.
The LCs/DDCs, as described in Example 1 and step 3, are inoculated into P96-well plates, at a rate of 200 000 cells/well, and in the culture medium described in Example 3. The treatment of the cells with the active principles is described in Example 3.
After treatment with the said active principles, the cells are incubated with 5 μl of dye 7-AAD (7-aminoactinomycin D) per well. After incubation for 5 minutes, the cells are analysed by flow cytometry.
The cell viability is expressed as a percentage of viable cells or negative 7-AAD, the dye not penetrating the membranes that are impermeable. This analysis technique also makes it possible to visualize the cells positively marked with 7-AAD, i.e. the cells that have undergone a cytotoxic effect via the active agent.
The negative controls are either the culture medium alone, or the culture medium containing the solvent used during the process for extracting the extracts tested at the concentration equivalent to that of the active agents tested. The reference positive control used in order to induce a mortality of the LCs/DDCs is camptothecin at a concentration of 4 μM final.

[3] = tested on: CD86 on LCs/DDCs stimulated with LPS and TNFα; assay: Response to a danger signal: LCs/DDCs simultaneously treated with active principles and stimulated with LPS + TNFα, CD86 by flow cytometry; format: cell-based, human; conditions: for RESIDUAL EXPRESSION OF CD86 AFTER TREATMENT: active principle alone, no stimulation; for RESIDUAL EXPRESSION OF CD86 AFTER TREATMENT / RESIDUAL EXPRESSION OF CD86 AFTER TREATMENT + STIMULATION: untreated unstimulated control = 100%; for RESPONSE CAPACITY: capacity for response to a danger signal, proportional to residual CD86 after treatment + stimulation (stimulation alone 143%); for RESIDUAL EXPRESSION OF CD86 AFTER TREATMENT + STIMULATION: simultaneous active principle and LPS 50 μg/mL + TNFα 10 μg/mL
Procedure: Evaluation of the immunorepressive potential of the active principles also requires a study of the capacity of the LCs/DDCs to respond to a danger signal, for example a bacterial infection, when they are treated with the said active principles. Specifically, we checked that the LCs/DDCs that are simultaneously treated with the active principles and activated by a danger signal are still competent in their function of recognition of danger signals. To do this, we checked that the LDs/DDCs simultaneously treated with the active principles and stimulated with LPS and TNFα are capable of overexpressing the co-stimulation molecule CD86 after this stimulation.
as §1, §2
2/ The cells are inoculated in P24-well plates, at a rate of 400 000 cells per cm^2, and in the culture medium described in Example 3. A mixture of LPS (at 50 μg/mL advantageously) and of TNFα (at 10 μg/mL advantageously) is added to the said culture medium. Simultaneously, the cells are treated with the active principles as described in Example 3.
3/ The cells that have been simultaneously treated with the active principles and stimulated with LPS and TNFα are analysed by flow cytometry, as described in Example 6, to quantify the residual expression of the molecule CD86 after “treatment+stimulation”.
The results are expressed in the following manner: the control not treated with the active agent and not stimulated with LPS+TNFα is referenced at 100% expression of the molecule CD86, and the tests are expressed as the residual expression of the molecule CD86 after “treatment”, after “treatment+stimulation” and “stimulation”. We also calculated the level of capacity for response to a danger signal, which is proportional to the residual expression of CD86 after treatment+stimulation.

[4] = tested on: CD86 on immature LCs/DDCs; assay: Protein expression of CD86 on treated immature LCs/DDCs, flow cytometry; format: cell-based, human; conditions: for RESIDUAL EXPRESSION OF CD86: protein, untreated control = 100%; for LEVEL OF IMMUNOREPRESSION: inversely proportional to residual CD86 protein expression, closer to 1 = stronger
Procedure: The study of the immunorepressive properties of the cosmetic active principles by flow cytometry proceeds in the following manner:
as §2
2/ The cells are inoculated in P24-well plates, at a rate of 400 000 cells per cm^2, and in the culture medium described in Example 3.
4/ The cells are then incubated for 30 minutes with an anti-CD86 monoclonal antibody coupled to a fluorochrome, such as phycoerythrin (advantageously 10 μl of anti-CD86 antibody/well). The negative marking control corresponds to the IgG1 control isotype. After this marking step, the cells are rinsed with the said marking buffer, and then analysed by flow cytometry.
The level of immunorepression, which is inversely proportional to the residual expression of CD86, was also calculated.

[5] = tested on: messenger RNAs coding for CD86 in immature LCs/DDCs; assay: Expression of messenger RNAs coding for CD86 in treated immature LCs/DDCs, quantitative RT-PCR; format: cell-based, human; conditions: 10^-7M, 24 hour treatment; for RESIDUAL EXPRESSION OF CD86: messenger RNA relative to actin, untreated control = 100%; for LEVEL OF IMMUNOREPRESSION: from CD86 messenger RNA, closer to 1 = stronger
Text: Quantitative RT-PCR makes it possible to quantify the expression of the messenger RNAs coding for the protein CD86 in the LCs/DDCs treated or not treated with the said active agents.
The study of the immunorepressive properties of the cosmetic active principles by quantitative RT-PCR proceeds in the following manner:
as §2, §3
3/ After treatment with the active principles, the cells are recovered and stored, for example by dry-freezing at −80° C. after rinsing with pH 7.4 phosphate buffer.
4/ The total RNA of the cells is extracted, for example using a 96-well extraction kit on silica columns, and assayed on e96-well spectrophotometer at 260 nm (purity indicator: assay of the proteins at 280 nm). The RNAs are diluted, for example, to 5 ng/μl.
5/ The […] RT-PCR in step 1 is performed, for example, on 50 ng of initial RNA on a 96-well plate, on the genes for actin and for the molecule CD86. The specific primers for each gene are specified in Table 7 below and are used, for example, at 0.5 μM.
The amplification parameters were advantageously the following: the real-time RT-PCR technique is performed with the Quanti Tect SYBR Green RT-PCR kit (Qiagen, France) on the wells containing the messenger RNA, in an Opticon thermocycler, which performs the amplification cycles. The reverse transcription (RT) is performed for 30 minutes at 50° C., followed by 15 minutes at 95° C. to inhibit the reverse transcriptase, to activate the polymerase and to denature the complementary DNA (cDNA) obtained. 50 cycles of chain polymerization (PCR) are performed (15 seconds at 95° C., 30 seconds at 60° C., 30 seconds at 72° C.). At the end of each cycle, the fluorescence, which is proportional to the number of amplified fragments, is read. The level of expression is defined by the ratio of expression of each gene relative to actin.
The results are expressed in the following manner: the untreated control is referenced at 100% expression of the messenger RNAs coding for the molecule CD86, and the tests are expressed as the level of expression of the messenger RNAs coding for CD86 as a percentage of variation relative to those obtained for the negative control.

[6] = 10^-7M, % viable (7-AAD negative) cells
[7] = 5 × 1^0^-^7M, dose/effect study

Compound | RESPONSE CAPACITY [1] | RESIDUAL EXPRESSION OF CD86 AFTER PRETREATMENT + STIMULATION [1] | CYTOTOXIC EFFECT ([2]; 10^-7M) | CELL VIABILITY [2, 6] | RESIDUAL EXPRESSION OF CD86 AFTER TREATMENT [3] | RESPONSE CAPACITY [3] | RESIDUAL EXPRESSION OF CD86 AFTER TREATMENT + STIMULATION [3] | RESIDUAL EXPRESSION OF CD86 [4, 7] | RESIDUAL EXPRESSION OF CD86 ([4]; 5 × 10^-8M, dose/effect study) | RESIDUAL EXPRESSION OF CD86 ([4]; 10^-6M, dose/effect study) | RESIDUAL EXPRESSION OF CD86 ([4]; 10^-7M, 24 hour treatment) | LEVEL OF IMMUNOREPRESSION ([4]; 10^-7M, 24 hour treatment) | RESIDUAL EXPRESSION OF CD86 [5] | LEVEL OF IMMUNOREPRESSION [5] | CELL VIABILITY ([2]; 3 μm, positive control) | CYTOTOXIC EFFECT ([2]; 3 μm, positive control)
COc1cc2c(cc1OC)-c1cc3cc(OC)c(OC)cc3c(=O)n1CC2 [8-Oxopseudopalmatine] | 0.89 | 127% | NO (The active principles have a cytotoxic effect when the cell viability is less than 75% after treatment with the said active agents) | 94% | 81% | 0.85 | 121% | 92% | 100% | 85% | 81% | 0.14 | 59% | 0.41 |  | 
Foliosidine acetonide | 0.84 | 120% | NO (The active principles have a cytotoxic effect when the cell viability is less than 75% after treatment with the said active agents) | >95% | 85% | 0.81 | 116% | 80% | 85% | 83% | 85% | 0.17 | 91% | 0.09 |  | 
CC[C@@]1(O)C(=O)OCc2c1cc1n(c2=O)Cc2cc3ccccc3nc2-1 [Camptothecin, reference compound] |  |  |  |  |  |  |  |  |  |  |  |  |  |  | 35% | YES (The active principles have a cytotoxic effect when the cell viability is less than 75% after treatment with the said active agents)
